Experimental data: US20240207453A1, “13C METHACETIN GRANULE, AND PREPARATION METHOD THEREFOR AND USE THEREOF” (BEIJING RICHEN-FORCE SCIENCE & TECHNOLOGY CO., LTD, priority 2021, published 2024)

Tests used:
[1] = comparison of water solubility; type: physicochemical; details: against the requirements of clinical use
[2] = comparison of stability (appearance, impurities) during storage; type: physicochemical
Description: Experimental Groups 1 to 6: the 13C-methacetin granular formulations prepared in Examples 1 to 6 of the present disclosure
Control Group 1: a powdered formulation. The respective adjuvant materials and the raw drug were weighed at a prescribed ratio and mixed uniformly in a mixer for 3 hours, whereby a powdered formulation or a powder was prepared.
Control Group 2: another granular formulation.
13C-methacetin has a low solubility in water, has a slow dissolution rate, should be stirred for a long time when being dissolved in 100 ml of water in an amount of 50 mg, and thus is not convenient in oral administration. […] The powders are agglomerated during storage. The addition of the adjuvant materials helps to improve the stability of the product, and the degraded impurities are less than those of the raw drug powder. […] By comparison, the developed granular formulation has better stability and water solubility, is stable in quality, and has high value in use.

CC(=O)Nc1ccc(O[13CH3])cc1 [13C-methacetin, N-acetyl-p-anisidine (methoxy-13C)]
water solubility (in words) [1]: low | Stability: Appearance (agglomeration) [2]: likely to agglomerate
